Results: the NIST ThermoML archive (doi:10.1021/acs.jced.6b00516)
± gives the expanded uncertainty stated by the source.

Tests used:
[1] = for viscosity / speed of sound / mass density: 102 kPa, Liquid; for viscosity: Concentric cylinders viscometry; for speed of sound: Frequency=3 MHz, Sing-around technique in a fixed-path interferometer; for mass density: Vibrating tube method; for surface tension liquid-gas: Sessile Drop
[2] = xn = mol fraction of the nth substance listed; conditions: 102 kPa, Liquid, Concentric cylinders viscometry, x2 = 0

Structure (SMILES) | viscosity ([1]; 293.15 K) | speed of sound ([1]; 293.15 K) | mass density ([1]; 293.15 K) | viscosity ([1]; 303.15 K) | speed of sound ([1]; 303.15 K) | mass density ([1]; 303.15 K) | viscosity ([1]; 313.15 K) | speed of sound ([1]; 313.15 K) | mass density ([1]; 313.15 K) | viscosity ([1]; 323.15 K) | speed of sound ([1]; 323.15 K) | mass density ([1]; 323.15 K) | viscosity ([1]; 333.15 K) | speed of sound ([1]; 333.15 K) | mass density ([1]; 333.15 K) | viscosity ([1]; 343.15 K) | mass density ([1]; 343.15 K) | viscosity ([1]; 353.15 K) | mass density ([1]; 353.15 K) | surface tension liquid-gas ([1]; 294 K) | other results
Cc1ccccc1 [toluene] | 0.607 ± 0.011 mPa·s | 1326.6 ± 0.8 m/s | 866.84 ± 0.13 kg/m3 | 0.54 ± 0.011 mPa·s | 1283.6 ± 0.8 m/s | 857.52 ± 0.13 kg/m3 | 0.483 ± 0.011 mPa·s | 1241.1 ± 0.8 m/s | 848.14 ± 0.14 kg/m3 | 0.434 ± 0.011 mPa·s | 1199.2 ± 0.8 m/s | 838.68 ± 0.14 kg/m3 | 0.391 ± 0.011 mPa·s | 1157.7 ± 0.8 m/s | 829.15 ± 0.14 kg/m3 | 0.349 ± 0.027 mPa·s | 819.6 ± 0.2 kg/m3 | 0.307 ± 0.011 mPa·s | 809.8 ± 0.5 kg/m3 |  | surface tension liquid-gas ([1]; 294.2 K): 28.6 ± 0.2 mN/m
CCCCC1CCCCC1 [butylcyclohexane] | 1.31 ± 0.01 mPa·s | 1328.4 ± 0.8 m/s | 799.33 ± 0.14 kg/m3 | 1.12 ± 0.01 mPa·s | 1288.7 ± 0.8 m/s | 791.82 ± 0.14 kg/m3 | 0.961 ± 0.012 mPa·s | 1249.5 ± 0.8 m/s | 784.28 ± 0.14 kg/m3 | 0.837 ± 0.012 mPa·s | 1210.8 ± 0.8 m/s | 776.7 ± 0.14 kg/m3 | 0.735 ± 0.011 mPa·s | 1172.8 ± 0.8 m/s | 769.09 ± 0.14 kg/m3 | 0.648 ± 0.011 mPa·s | 761.4 ± 0.2 kg/m3 | 0.576 ± 0.021 mPa·s | 753.7 ± 0.3 kg/m3 | 26.7 ± 0.2 mN/m | 
CCCCCCCCCCCCCCCC [hexadecane] | 3.44 ± 0.02 mPa·s | 1357.2 ± 0.8 m/s | 773.41 ± 0.14 kg/m3 | 2.72 ± 0.02 mPa·s | 1319.5 ± 0.8 m/s | 766.47 ± 0.14 kg/m3 | 2.21 ± 0.02 mPa·s | 1283.3 ± 0.8 m/s | 759.55 ± 0.15 kg/m3 | 1.83 ± 0.01 mPa·s | 1247.3 ± 0.8 m/s | 752.63 ± 0.15 kg/m3 | 1.54 ± 0.01 mPa·s | 1212 ± 0.8 m/s | 745.71 ± 0.15 kg/m3 | 1.31 ± 0.01 mPa·s | 738.8 ± 0.2 kg/m3 | 1.14 ± 0.01 mPa·s | 731.9 ± 0.3 kg/m3 | 27.1 ± 0.3 mN/m | viscosity ([1]; 363.15 K): 0.994 ± 0.012 mPa·s; viscosity ([1]; 373.15 K): 0.878 ± 0.012 mPa·s
CCCCCCCCCCCCCCCC [hexadecane] + CCCCC1CCCCC1 |  |  |  |  |  |  |  |  |  |  |  |  |  |  |  |  |  |  |  |  | viscosity ([2]; 293.15 K): 3.44 ± 0.02 mPa·s; viscosity ([2]; 303.15 K): 2.72 ± 0.02 mPa·s; viscosity ([2]; 313.15 K): 2.21 ± 0.02 mPa·s; viscosity ([2]; 323.15 K): 1.83 ± 0.01 mPa·s; viscosity ([2]; 333.15 K): 1.54 ± 0.01 mPa·s; viscosity ([2]; 343.15 K): 1.31 ± 0.01 mPa·s; viscosity ([2]; 353.15 K): 1.14 ± 0.01 mPa·s
Cc1ccccc1 [toluene] + CCCCC1CCCCC1 |  |  |  |  |  |  |  |  |  |  |  |  |  |  |  |  |  |  |  |  | viscosity ([2]; 293.15 K): 0.607 ± 0.011 mPa·s; viscosity ([2]; 303.15 K): 0.54 ± 0.011 mPa·s; viscosity ([2]; 313.15 K): 0.483 ± 0.011 mPa·s; viscosity ([2]; 323.15 K): 0.434 ± 0.011 mPa·s; viscosity ([2]; 333.15 K): 0.391 ± 0.011 mPa·s; viscosity ([2]; 343.15 K): 0.349 ± 0.011 mPa·s; viscosity ([2]; 353.15 K): 0.307 ± 0.011 mPa·s
